Assays:
[1] = tested on: D05 and C008 melanoma cell lines; test: Proliferation by IncuCyte Zoom real time cell imaging, sensitive lines; assay type: cell-based, human
Description: (§1) Four cell lines were then chosen for further analysis. These were C006 (NRAS mt), C092 (Triple wt), C008 (NF1 mt) and D05 (BRAF mt). These four lines are representatives of the 4 cutaneous melanoma genomic subtypes and include 2 lines (C008 and D05) that were very sensitive to the inhibitor and 2 lines that were less sensitive (C006 and C092). Proliferation of these lines was evaluated by real time cell imaging using IncuCyte Zoom where cells were grown for 48 hours in the presence or absence of 5 μM UNC0642.
(§2) For proliferation studies, cells (5×10^3) were seeded in 96-place wells and allowed to adhere overnight, and incubated in fresh growth medium in the presence of either the G9a inhibitor UNC0642 (Sigma Aldrich) or the vehicle control DMSO (Sigma Aldrich). Proliferation was evaluated via real-time imaging using IncuCyte Zoom (Essen BioScience) and/or by performing a 3-(4,5-dimethylthiazol-2-yl)-2,5-diphenyltetrazolium bromide ([…]) assay. After monitoring the cells, 20 μL of MTT (5 mg/mL; Sigma-Aldrich) was added. The plates were incubated at 37° C. for 3 h before the supernatants were removed, and 100 μL of isopropanol was added to each well. The absorbance value (optical density) of each well was measured at 570 nm.

C092 cell line = test: Cell viability of C092 with LC3B knock down following G9a inhibitor treatment; assay type: cell-based, human; conditions: data not shown
Excerpt: Therefore, the basal levels of important autophagy related proteins were examined in the melanoma cell lines used in this study. It is has been shown that the inhibition of G9a can cause an induction of the autophagy-related gene 5 (ATG5), Beclin-1 (known also as ATG6) and the conversion of microtubule-associated protein 1 light chain 3 beta (MAP1LC3B or LC3B for short) I (17 KDa) to LCB3 II (15 KDa) through proteolytic cleavage and lipidation (de Narvajas et al. (2013) and Li et a. (2015). These changes are considered a hallmark of mammalian autophagy. When cells undergo autophagy, conversion of a fraction of cytoplasmic LC3B Ito autophagic membrane form LC3B II can be detected by western blot or by immunofluorescence. This conversion correlates with autophagic activity (Kabeya et al (2000) Embo J 19, 5720-5728), therefore the levels of LC3B II can be considered a reliable marker of autophagy. […] To assess whether lowering LC3B levels in the C092 non-responsive cell line would allow increased sensitivity to the G9a inhibitor treatment, cell viability of C092 following G9a inhibitor treatment was assessed.

[2] = tested on: C006 and C092 melanoma cell lines; test: Proliferation by IncuCyte Zoom real time cell imaging, less sensitive lines; assay type: cell-based, human; conditions: C006 and C092, 5 μM, 48 hours, compared to vehicle
Description: as §1, §2

H3K9me2 = test: Immunoblotting analysis of global H3K9me2; assay type: cell-based, human; conditions: D05 and C008 cell lines, as early as 8 hours and persisted to 24 hours, FIG. 3B
Description: (§3) For immunoblotting, protein whole cell lysates were prepared using RIPA lysis buffer containing 20 mM Tris, pH 8.0, 150 mM NaCl, 10% glycerol, 1% Nonidet P-40 containing protease inhibitor cocktail (Roche). Nuclear extracts were obtained using a standard high salt extraction buffer (20 mM HEPES (pH 7.9), 0.32 M NaCl, 1 mM EDTA, and 1 mM EGTA) supplemented with 1mM DU and protease inhibitor cocktail. Protein assays were performed according to the Bradford method using a protein assay kit (BioRad). […] of denatured proteins were separated using 10% sodium dodecyl sulfate-polyacrylamide gel electrophoresis (SDS-PAGE) and transferred to Polyvinylidene difluoride (PVDF) membranes. The membranes were blocked for 1 hour in 5% skim milk in Tris-buffered saline with Tween 20 (TBST; 10 mM Tris-HCl, 150 mM NaCl, 0.1% Tween 20). Immunoblotting was performed with primary anti G9a (#3306, Cell Signaling), H3K9me2 (ab 1220, Abcam), H3 (ab1791, Abcam) or Tubulin (ab6046, Abcam) and detected with either HRP-conjugated anti-rabbit (#7074, Cell Signaling Technology) or HRP-conjugated anti-mouse (#7076, Cell Signaling Technology). After applying ECL detection reagents (GE Healthcare), protein bands were visualized using X-ray film (Fujifilm).

LC3B = test: EGFP-LC3B immunofluorescence analysis (punctate pattern); assay type: cell-based, human; conditions: D05 and C092 cell lines, 5 μM, 8 hours, data not shown
Description: Retroviral constructs expressing short hairpin RNA to G9a (shG9a) or a non-silencing control (shNS) were used as previously described (Casciello et al. (2017) Proc Natl Acad Sci USA 114, 7077-7082). pBABE-puro mCherry-EGFP-LC3B was obtained from Addgene (plasmid #22418) (N'Diaye et al. (2009) EMBO reports 10, 173-179). The viral supernatants were prepared by co-transfecting the constructs with pUMVC3 and pVSV-G into HEK293T cells using Superfect transfection reagent (Qiagen). The supernatants were harvested and used to infect cells in medium, which contained 8 μg/ml polybrene. Cell medium was replaced and fresh growth medium was added after 24 h. Cells were harvested 72 h later or selected using 1 μg/ml of Puromycin sulfate.
Stable cells expressing EGFP-LC3B construct were treated with DMSO, UNC0642 at 5 μM or 20 nM Bafilomycin A1 (Sigma Aldrich) for 8 hours. Images were taken with an EVOS FL auto fluorescent microscope (Invitrogen) and quantitated using ImageJ software.

D20 melanoma cells = test: In vivo tumor growth analysis, D20 melanoma xenograft; parameters: species or system SCID mice; conditions: 5 mg/kg every two days for two weeks, vs vehicle control
Description: To determine the effect of inhibiting G9a on tumor growth, 6-8 week old SCID mice were subcutaneously injected with D20 BRAF mutant cutaneous melanoma cells. Palpable tumors were allowed to establish (approx. 10 days) before UNC0642 was administered at 5 mg/kg every two days for two weeks. The D20 cell line was used in the subcutaneous model as it had been shown previously to be tumorigenic in vivo and was also sensitive to the drug in vitro.
Groups of 8 SCID mice per treatment group were used for xenograft studies to ensure adequate power to detect biological differences. All experiments were approved by the QIMR Berghofer Medical Research Institute Animal Ethics Committee. D20 melanoma cells (2×106) were mixed 1:1 ratio with Growth factor-reduced Matrigel (BD Biosciences) and injected subcutaneously into the flank of 6-8 week old mice in 100 μL volume (day 0) and treatments, either DMSO or UNC0642 at 5 mg/kg were administered as indicated in the figure legends. Tumor volumes (width2×length/2) were measured using a digital calliper, and presented as mean±SD. All animals were sacrificed at the same time and the tumors were dissected for further analysis.

LC3B II = test: Immunoblotting analysis of LC3B I/II; assay type: cell-based, human; conditions: D05 and C008 cell lines, 5 μM, 8 hours, FIG. 6
Description: as §3
Immunoblotting analysis was performed as described above, but also utilizing an anti-LC3B primary antibody (ab48394, Abcam).

SMILES: COc1cc2c(NC3CCN(C(C)C)CC3)nc(N3CCC(F)(F)CC3)nc2cc1OCCCN1CCCC1 [UNC0642]
- proliferation ([1]; D05 and C008, 5 μM, 48 hours, compared to vehicle control, data not shown): significant reduction in proliferation
- number of cells ([1]; over 48 hours treatment, 5 μM, FIG. 3A): significantly decreased
- cell viability following G9a inhibitor treatment (C092 cell line): significantly reduced
- proliferation [2]: much less affected
- global H3K9me2 (H3K9me2): reduction
- distribution of EGFP-LC3B (punctate pattern) (LC3B): increase in punctate pattern
- tumor weight (D20 melanoma cells; end-point, P<0.01, FIG. 10B): statistically significantly reduced
- tumor growth (D20 melanoma cells; intraperitoneally, P<0.05, FIG. 10A): statistically significantly reduced
- LC3B II protein levels (LC3B II): dramatically increased

From patent publication US20210340629A1, “BIOMARKERS FOR CANCER THERAPY” (The Council of the Queensland Institute of Medical Research, priority 2018, published 2021)
